Measurements published in patent US10087181B2, “Compound as WNT signaling inhibitor, composition, and use thereof” (CUREGENIX, INC., priority 2012, dated 2018).

System: WNT pathway
Test: WNT pathway reporter gene assay (NIH3T3 TCF-Luc cells co-cultured with 293 WNT3a cells)
Format: cell-based
Conditions: Mus musculus, concentration reducing luminescence intensity by 50%, TCF luciferase, 16 hours co-culture
Protocol: NIH3T3 mouse fibroblast cells (American Type Culture Collection, Manassas, Va.) were transfected with a plasmid containing a luciferase gene driven by 5 copies of TCF elements. Stale cells selected with 1 μg/mL of Zeocin (Gibco/Invitrogen, Carlsbad, Calif.) are cultured in Dulbecco's modified Eagle's medium (Invitrogen, Carlsbad, Calif.) supplemented with 10% FBS (Invitrogen), 50 unit/mL penicillin and 50 μg/mL of streptomycin (Invitrogen) at 37° C. with 5% CO2 in air atmosphere.
After 16 hours, the firefly luciferase activities are measured with the Steady-Glo™ Luciferase Assay System (Promega). The cells were treated with different concentrations of compounds of this invention during the co-culture. […] To normalize for cell quantity and viability, CellTiter Glo assay is next performed in a duplicate plate.

Compound | IC50 [nM]
Cc1cc(-c2ccc(CNc3nccc4cc(-c5ccnc(C)c5)ncc34)cc2)ccn1 [Compound 1, N-(4-(2-methylpyridin-4-yl)benzyl)-6-(2-methylpyridin-4-yl)-2,7-naphthyridin-1-amine] | < 3
Cc1cc(-c2cc3ccnc(NCc4ccc(-c5ccnc(C)c5)c(C)c4)c3cn2)ccn1 [Compound 2, N-(3-methyl-4-(2-methylpyridin-4-yl)benzyl)-6-(2-methylpyridin-4-yl)-2,7-naphthyridin-1-amine] | < 3

Next, values leading:

IC50 [nM] | Compound
< 3 | Cc1cc(-c2cc3ccnc(NCc4ccc(-c5ccnc(F)c5)c(F)c4)c3cn2)ccn1 [Compound 28]
< 3 | Cc1cc(-c2ncc(CNc3nccc4cc(-c5cnccn5)ccc34)cc2C)ccn1 [Compound 70]
< 3 | Cc1cc(-c2ccc(CNc3nccc4cc(-c5cnccn5)ncc34)cc2)ccn1 [Compound 35]
